What was measured:
[1] = tested on: Treponema hyodysenteriae induced swine dysentery; assay: Treponema hyodysenteriae induced swine dysentery, lysocellin in feed, 51-day trial, challenge on study day 22; assay type: in vivo; details: for Number of Pigs per Pen Expressing Clinical Signs of Dysentery During the Postchallenge Period: Anorexia / Number of Pigs per Pen Expressing Clinical Signs of Dysentery During the Postchallenge Period: Any clinical signs / Number of Pigs per Pen Expressing Clinical Signs of Dysentery During the Postchallenge Period: Bloody feces / Number of Pigs per Pen Expressing Clinical Signs of Dysentery During the Postchallenge Period: Dehydrated / Number of Pigs per Pen Expressing Clinical Signs of Dysentery During the Postchallenge Period: Depressed / Number of Pigs per Pen Expressing Clinical Signs of Dysentery During the Postchallenge Period: Gauntness / Number of Pigs per Pen Expressing Clinical Signs of Dysentery During the Postchallenge Period: Lethargic / Number of Pigs per Pen Expressing Clinical Signs of Dysentery During the Postchallenge Period: Reddened skin / Number of Pigs per Pen Expressing Clinical Signs of Dysentery During the Postchallenge Period: Rough hair coat / Number of Pigs per Pen Expressing Clinical Signs of Dysentery During the Postchallenge Period: Weak / Number of Pig Days per Pen with Clinical Signs of Dysentery During the Postchallenge Period: Anorexia / Number of Pig Days per Pen with Clinical Signs of Dysentery During the Postchallenge Period: Bloody feces / Number of Pig Days per Pen with Clinical Signs of Dysentery During the Postchallenge Period: Dehydrated / Number of Pig Days per Pen with Clinical Signs of Dysentery During the Postchallenge Period: Depressed / Number of Pig Days per Pen with Clinical Signs of Dysentery During the Postchallenge Period: Gauntness / Number of Pig Days per Pen with Clinical Signs of Dysentery During the Postchallenge Period: Lethargic / Number of Pig Days per Pen with Clinical Signs of Dysentery During the Postchallenge Period: Reddened skin / Number of Pig Days per Pen with Clinical Signs of Dysentery During the Postchallenge Period: Rough hair coat / Number of Pig Days per Pen with Clinical Signs of Dysentery During the Postchallenge Period: Weak: mean (lower, higher 95% confidence limits); for Number of Pigs per Pen Expressing Clinical Signs of Dysentery During the Postchallenge Period: Anorexia / Number of Pigs per Pen Expressing Clinical Signs of Dysentery During the Postchallenge Period: Any clinical signs / Number of Pigs per Pen Expressing Clinical Signs of Dysentery During the Postchallenge Period: Bloody feces / Number of Pigs per Pen Expressing Clinical Signs of Dysentery During the Postchallenge Period: Dehydrated / Number of Pigs per Pen Expressing Clinical Signs of Dysentery During the Postchallenge Period: Depressed / Number of Pigs per Pen Expressing Clinical Signs of Dysentery During the Postchallenge Period: Gauntness / Number of Pigs per Pen Expressing Clinical Signs of Dysentery During the Postchallenge Period: Lethargic / Number of Pigs per Pen Expressing Clinical Signs of Dysentery During the Postchallenge Period: Reddened skin / Number of Pigs per Pen Expressing Clinical Signs of Dysentery During the Postchallenge Period: Rough hair coat / Number of Pigs per Pen Expressing Clinical Signs of Dysentery During the Postchallenge Period: Weak: 5 pigs/pen; for Number of Pig Days per Pen with Clinical Signs of Dysentery During the Postchallenge Period: Anorexia / Number of Pig Days per Pen with Clinical Signs of Dysentery During the Postchallenge Period: Bloody feces / Number of Pig Days per Pen with Clinical Signs of Dysentery During the Postchallenge Period: Dehydrated / Number of Pig Days per Pen with Clinical Signs of Dysentery During the Postchallenge Period: Depressed / Number of Pig Days per Pen with Clinical Signs of Dysentery During the Postchallenge Period: Gauntness / Number of Pig Days per Pen with Clinical Signs of Dysentery During the Postchallenge Period: Lethargic / Number of Pig Days per Pen with Clinical Signs of Dysentery During the Postchallenge Period: Reddened skin / Number of Pig Days per Pen with Clinical Signs of Dysentery During the Postchallenge Period: Rough hair coat / Number of Pig Days per Pen with Clinical Signs of Dysentery During the Postchallenge Period: Weak: 5 pigs/pen for 28 days = 140 pig days; for fecal condition (number of pen pig days with a specified fecal condition): postchallenge period (Table 5, not given); for Daily feed / Daily gain / Feed/Gain: infected pigs
Source text: One hundred twenty (120) cross-bred barrows and gilts were used in a randomized complete blocks design to evaluate the effect of lysocellin on Treponema hyodysenteriae induced swine dysentery. The swine were divided into 4 groups: (1) non-infected, non-medicated controls, (2) infected non-medicated controls, (3) infected, medicated at 98.43 grams lysocellin/t (100 g/T), and (4) infected, medicated at 196.85 grams lysocellin/t (200 g/T). All were observed through a 51-day trial period. Swine in groups (2)-(4) were challenged with Treponema hyodysenteriae on study day 22 and the post-challenge period data were analyzed for significant differences. A description of the experimental design is summarized as follows:
Comparisons were made on treatment 1 vs. treatments 3 and 4, treatment 2 vs. treatment 3 and 4, and treatment 3 vs. treatment 4. The following observations were made based upon data analyzed: postchallenge performance of swine with respect to daily gain and daily feed gain, number of pigs per pen expressing clinical signs of dysentery during the postchallenge period, number of pig days per pen with clinical signs of dysentery during the postchallenge period, and number of pig days per pen with specified fecal score.
Referring to table 3 and table 4, clinical signs of dysentery observed during the postchallenge period are presented as treatment means of: number of pigs per pen expressing the sign and number of pig days the sign was observed within a pen. The value "pig days" was based on 28 days/pig surviving to the end of the trial or number of days a pig survived during the postchallenge period (for example, 5 pigs/pen on trial for 28 days equals 140 pig days). Removal of pigs from a pen during the trial was taken into account in these calculations.

Treponema hyodysenteriae = assay: in vitro Streak Plate Test Method (inhibition endpoint / MIC on trypticase soy blood agar); assay type: cell-based; details: summary of Table 1
Method: The following test procedure was used to evaluate the anti-Treponema hyodysenteriae activity of the compounds in the present invention. This test procedure establishes the lowest concentration of the compounds that will inhibit the growth on cultures of Treponema hyodysenteriae in an in vitro Streak Plate Test Method.
Procedure: Stock solutions containing 10,000, 1,000, 100, 10, 1.0, and 0.1, micrograms per milliliters of the compound to be tested were prepared. The final dilutions to establish the test concentrations in the media were made by placing the correct volume of stock solution in a petri dish, adding the media (trypticase soy blood agar), and mixing before the media solidified. After the media solidified, the test cultures of Treponema hyodysenteriae were streaked onto the surface of the agar. Petri dishes containing media without test samples were also set up as culture controls and are inoculated in the same manner. All inoculated plates were incubated at 39°C in anaerobic jars for 48 hrs. Inhibition endpoints were then determined by observing the test plates for growth or no growth of the test cultures at the various concentrations of the compounds. If the culture growth occured at one concentration but not at the next higher concentration, the inhibitory endpoint or MIC (Minimum Inhibitory Concentration) was considered the higher concentration.
Referring to Table 1, the culture numbers refer to field isolate strains of Treponema hyodysenteriae. These field isolates were isolated in Illinois, Iowa, and Nebraska. The numbers giving the results in the Table are read as follows: the first number for each isolate and compound tested corresponds to the concentration in micrograms per milliliter where growth occurred and the second number corresponds to the concentration in micrograms per milliliter where no growth occurred.

[2] = 196.85 g/t (200 g/T) lysocellin
[3] = postchallenge period 0-7 days, 98.43 g/t (100 g/T) lysocellin
[4] = postchallenge period 0-7 days, 196.85 g/t (200 g/T) lysocellin
[5] = postchallenge period 0-14 days, 98.43 g/t (100 g/T) lysocellin
[6] = postchallenge period 0-14 days, 196.85 g/t (200 g/T) lysocellin
[7] = postchallenge period 0-21 days, 98.43 g/t (100 g/T) lysocellin
[8] = postchallenge period 0-21 days, 196.85 g/t (200 g/T) lysocellin
[9] = postchallenge period 0-28 days, 98.43 g/t (100 g/T) lysocellin
[10] = postchallenge period 0-28 days, 196.85 g/t (200 g/T) lysocellin

## lysocellin
[1]; 98.43 g/t (100 g/T) lysocellin
  Number of Pigs per Pen Expressing Clinical Signs of Dysentery During the Postchallenge Period: Anorexia: 0.00 (-0.27,0.37)
  Number of Pigs per Pen Expressing Clinical Signs of Dysentery During the Postchallenge Period: Any clinical signs: 4.49 (3.42,5.69)
  Number of Pigs per Pen Expressing Clinical Signs of Dysentery During the Postchallenge Period: Bloody feces: 2.73 (1.93,3.66)
  Number of Pigs per Pen Expressing Clinical Signs of Dysentery During the Postchallenge Period: Dehydrated: 1.08 (0.44,1.89)
  Number of Pigs per Pen Expressing Clinical Signs of Dysentery During the Postchallenge Period: Depressed: 1.78 (1.18,2.47)
  Number of Pigs per Pen Expressing Clinical Signs of Dysentery During the Postchallenge Period: Gauntness: 3.98 (3.13,4.92)
  Number of Pigs per Pen Expressing Clinical Signs of Dysentery During the Postchallenge Period: Lethargic: 2.12 (1.50,2.82)
  Number of Pigs per Pen Expressing Clinical Signs of Dysentery During the Postchallenge Period: Reddened skin: 0.87 (0.24,1.69)
  Number of Pigs per Pen Expressing Clinical Signs of Dysentery During the Postchallenge Period: Rough hair coat: 1.93 (1.20,2.79)
  Number of Pigs per Pen Expressing Clinical Signs of Dysentery During the Postchallenge Period: Weak: 1.93 (1.31,2.64)
  Number of Pig Days per Pen with Clinical Signs of Dysentery During the Postchallenge Period: Anorexia: 0.00 (-0.30,0.43)
  Number of Pig Days per Pen with Clinical Signs of Dysentery During the Postchallenge Period: Bloody feces: 9.98 (5.72,15.34)
  Number of Pig Days per Pen with Clinical Signs of Dysentery During the Postchallenge Period: Dehydrated: 2.69 (1.40,4.33)
  Number of Pig Days per Pen with Clinical Signs of Dysentery During the Postchallenge Period: Depressed: 3.14 (1.78,4.81)
  Number of Pig Days per Pen with Clinical Signs of Dysentery During the Postchallenge Period: Gauntness: 30.35 (20.97,41.42)
  Number of Pig Days per Pen with Clinical Signs of Dysentery During the Postchallenge Period: Lethargic: 9.08 (4.93,14.42)
  Number of Pig Days per Pen with Clinical Signs of Dysentery During the Postchallenge Period: Reddened skin: 2.21 (0.51,4.72)
  Number of Pig Days per Pen with Clinical Signs of Dysentery During the Postchallenge Period: Rough hair coat: 18.07 (7.46,33.11)
  Number of Pig Days per Pen with Clinical Signs of Dysentery During the Postchallenge Period: Weak: 0.87 (0.08,1.99)
[1]; 196.85 g lysocellin/t (200 g/T) rather than 98.43 g/T
  fecal condition (number of pen pig days with a specified fecal condition): increased (PM.05) the number of days with normal feces and decreased (P<.05) the incidence of soft, watery or bloody feces
[1]; [2]
  Number of Pigs per Pen Expressing Clinical Signs of Dysentery During the Postchallenge Period: Anorexia: 0.00 (-0.27,0.37)
  Number of Pigs per Pen Expressing Clinical Signs of Dysentery During the Postchallenge Period: Any clinical signs: 2.72 (1.87,3.70)
  Number of Pigs per Pen Expressing Clinical Signs of Dysentery During the Postchallenge Period: Bloody feces: 1.20 (0.63,1.89)
  Number of Pigs per Pen Expressing Clinical Signs of Dysentery During the Postchallenge Period: Dehydrated: 0.23 (-0.18,0.80)
  Number of Pigs per Pen Expressing Clinical Signs of Dysentery During the Postchallenge Period: Depressed: 0.27 (-0.06,0.70)
  Number of Pigs per Pen Expressing Clinical Signs of Dysentery During the Postchallenge Period: Gauntness: 1.96 (1.35,2.67)
  Number of Pigs per Pen Expressing Clinical Signs of Dysentery During the Postchallenge Period: Lethargic: 0.43 (0.08,0.87)
  Number of Pigs per Pen Expressing Clinical Signs of Dysentery During the Postchallenge Period: Reddened skin: 0.55 (0.01,1.28)
  Number of Pigs per Pen Expressing Clinical Signs of Dysentery During the Postchallenge Period: Rough hair coat: 1.31 (0.68,2.06)
  Number of Pigs per Pen Expressing Clinical Signs of Dysentery During the Postchallenge Period: Weak: 1.31 (0.78,1.93)
  Number of Pig Days per Pen with Clinical Signs of Dysentery During the Postchallenge Period: Anorexia: 0.00 (-0.30,0.43)
  Number of Pig Days per Pen with Clinical Signs of Dysentery During the Postchallenge Period: Bloody feces: 3.02 (0.78,6.35)
  Number of Pig Days per Pen with Clinical Signs of Dysentery During the Postchallenge Period: Dehydrated: 0.23 (-0.30,1.09)
  Number of Pig Days per Pen with Clinical Signs of Dysentery During the Postchallenge Period: Depressed: 0.38 (-0.21,1.29)
  Number of Pig Days per Pen with Clinical Signs of Dysentery During the Postchallenge Period: Gauntness: 11.17 (5.73,18.30)
  Number of Pig Days per Pen with Clinical Signs of Dysentery During the Postchallenge Period: Lethargic: 1.82 (0.07,4.74)
  Number of Pig Days per Pen with Clinical Signs of Dysentery During the Postchallenge Period: Reddened skin: 1.29 (-0.02,3.41)
  Number of Pig Days per Pen with Clinical Signs of Dysentery During the Postchallenge Period: Rough hair coat: 9.55 (2.33,21.19)
  Number of Pig Days per Pen with Clinical Signs of Dysentery During the Postchallenge Period: Weak: 0.13 (-0.35,0.94)
[1]; infected pigs fed lysocellin
  mortality: prevented mortality
[1]; infected pigs receiving either level of lysocellin, postchallenge period
  anorexia (clinical sign): No pigs receiving lysocellin appeared anorexic
[1]; pigs receiving lysocellin (either level) vs infected control pigs
  feed efficiency: superior (P<.05)
[1]; pigs receiving lysocellin (either level) vs infected nonmedicated pigs, each period (7, 14, 21 and 28 days)
  cumulative average daily gain: improved (P<.05) over that of nonmedicated pigs
[1]; pigs receiving lysocellin vs infected non-medicated control pigs
  fecal condition (number of pen pig days with a specified fecal condition): Infected non-medicated control pigs had significantly fewer (P<.05) days of normal feces and more (P<.05) days of water or bloody diarrhea than pigs receiving lysocellin
[1]; [3]
  Daily feed: 1.06 kg/day
  Daily gain: 0.35 kg/day
  Feed/Gain: 3.21
[1]; [4]
  Daily feed: 0.94 kg/day
  Daily gain: 0.41 kg/day
  Feed/Gain: 2.30
[1]; [5]
  Daily feed: 0.90 kg/day
  Daily gain: 0.22 kg/day
  Feed/Gain: 4.61
[1]; [6]
  Daily feed: 1.03 kg/day
  Daily gain: 0.35 kg/day
  Feed/Gain: 2.99
[1]; [7]
  Daily feed: 0.89 kg/day
  Daily gain: 0.28 kg/day
  Feed/Gain: 3.38
[1]; [8]
  Daily feed: 1.07 kg/day
  Daily gain: 0.42 kg/day
  Feed/Gain: 2.55
[1]; [9]
  Daily feed: 0.99 kg/day
  Daily gain: 0.33 kg/day
  Feed/Gain: 3.01
[1]; [10]
  Daily feed: 1.15 kg/day
  Daily gain: 0.45 kg/day
  Feed/Gain: 2.55
Treponema hyodysenteriae
  activity compared to the controls: comparable activity

Reference: patent EP0250134B1, “Method for combating swine dysentery” (IMCERA Group Inc., priority 1986, dated 1987)
